Laboratory results reported in paper PMC9607159, “High-Resolution Bioassay Profiling with Complemented Sensitivity and Resolution for Pancreatic Lipase Inhibitor Screening” (Molecules, 2022).
Like-named read-outs stand apart in the source and are kept apart here.

Target: T1, pancreatic lipase (PL) (Sus scrofa, UniProt P00591)
T1 construct: gene PNLIP
T1 sequence (P00591 1-450): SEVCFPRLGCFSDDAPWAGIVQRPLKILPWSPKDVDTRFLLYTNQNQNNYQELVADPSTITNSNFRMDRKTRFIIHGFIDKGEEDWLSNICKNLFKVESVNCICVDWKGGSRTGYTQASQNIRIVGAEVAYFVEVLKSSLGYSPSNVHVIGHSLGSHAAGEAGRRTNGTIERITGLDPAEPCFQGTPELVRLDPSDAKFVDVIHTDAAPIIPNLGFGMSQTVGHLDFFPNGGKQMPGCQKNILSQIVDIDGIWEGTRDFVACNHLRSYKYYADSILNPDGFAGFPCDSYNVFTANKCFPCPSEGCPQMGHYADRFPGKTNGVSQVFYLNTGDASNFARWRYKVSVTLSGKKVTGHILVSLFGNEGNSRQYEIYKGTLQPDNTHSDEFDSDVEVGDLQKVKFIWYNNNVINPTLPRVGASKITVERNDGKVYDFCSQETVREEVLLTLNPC
Assay: fluorogenic 4-MUO lipase assay dose-response; also nanofractionation bioassay profiling and ligand fishing with PL magnetic beads
Assay type: biochemical

Row | Structure (SMILES) | IC50 (read-out: IC50) | IC50
1 | O=C(O[C@@H]1Cc2c(O)cc(O)cc2O[C@@H]1c1cc(O)c(O)c(O)c1)c1cc(O)c(O)c(O)c1 [(-)-Epigallocatechin gallate] | 0.97 µM | 
2 | O=c1cc(-c2ccc(O)c(O)c2)oc2cc(O)cc(O)c12 [luteolin] |  | 30.6 µM
